Values after ≈ are worked out from the molar mass of the structure shown.
What was measured:
[1] = Cytotoxicity against human 9KB cells after 3 days; assay type: functional; settings: 72 h, read-out: ID50 (the source's name)
P388 [2] = assay: Cytotoxicity against mouse doxorubicin-resistant P388 cells after 3 days; assay type: functional; settings: P388, 72 h, read-out: ID50 (the source's name)
P388 [3] = assay: Cytotoxicity against mouse doxorubicin-sensitive P388 cells after 3 days; assay type: functional; settings: P388, 72 h, read-out: ID50 (the source's name)
B16 [4] = assay: Antitumor activity in mouse B16 cells xenografted in BDF1 mouse at 0.62 mg/kg, ip administered from day 1 to 5 after transplantation; assay type: functional; settings: route intraperitoneal
M5076 [5] = assay: Antitumor activity in mouse M5076 cells xenografted in BDF1 mouse at 2.50 mg/kg, ip administered from day 1 to 9 after transplantation; assay type: functional; settings: dose 2.5 mg/kg; route intraperitoneal
M5076 [6] = assay: Antitumor activity in mouse M5076 cells xenografted in BDF1 mouse at 5 mg/kg, ip administered from day 1 to 9 after transplantation; assay type: functional; settings: route intraperitoneal
Mus musculus [7] = assay: Toxicity in mouse B16 cells xenografted in BDF1 mouse at 10 mg/kg, ip administered from day 1 to 5 after transplantation; assay type: organism-based; design: dose 10 mg/kg, route intraperitoneal; settings: in vivo
M5076 [8] = assay: Antitumor activity in mouse M5076 cells xenografted in BDF1 mouse at 0.31 mg/kg, ip administered from day 1 to 9 after transplantation; assay type: functional; settings: route intraperitoneal
Mus musculus [9] = assay: Toxicity in mouse M5076 cells xenografted in BDF1 mouse at 10 mg/kg, ip administered from day 1 to 9 after transplantation; assay type: organism-based; design: dose 10 mg/kg, route intraperitoneal; settings: in vivo
M5076 [10] = assay: Antitumor activity in mouse M5076 cells xenografted in BDF1 mouse at 1.25 mg/kg, ip administered from day 1 to 9 after transplantation; assay type: functional; settings: route intraperitoneal
B16 [11] = assay: Antitumor activity in mouse B16 cells xenografted in BDF1 mouse at 2.50 mg/kg, ip administered from day 1 to 5 after transplantation; assay type: functional; settings: dose 2.5 mg/kg; route intraperitoneal
B16 [12] = assay: Antitumor activity in mouse B16 cells xenografted in BDF1 mouse at 1.25 mg/kg, ip administered from day 1 to 5 after transplantation; assay type: functional; settings: route intraperitoneal
B16 [13] = assay: Antitumor activity in mouse B16 cells xenografted in BDF1 mouse at 5 mg/kg, ip administered from day 1 to 5 after transplantation; assay type: functional; settings: route intraperitoneal
M5076 [14] = assay: Antitumor activity in mouse M5076 cells xenografted in BDF1 mouse at 0.63 mg/kg, ip administered from day 1 to 9 after transplantation; assay type: functional; settings: route intraperitoneal

Row | Structure (SMILES) | IC50 [1] [µg/mL] | IC50 (P388 [2]) [µg/mL] | IC50 (P388 [3]) [µg/mL] | other results
1 | CC(C)=CCC/C(C)=C/COc1cc(O)c2c(O)c3c(cc2c1)CC(C)(O)CC3=O (stereo unspecified) [VISMIONE D] | 14 (≈ 34.1 µM) | 18 (≈ 43.8 µM) | 14 (≈ 34.1 µM) | 
2 | CC(=O)OC1(C)CC(=O)c2c(cc3cc(O)c(C/C=C(\C)CCC=C(C)C)c(O)c3c2O)C1 (stereo unspecified) [ACETYLVISMIONE F] | 1 (≈ 2.21 µM) | 3 (≈ 6.63 µM) | 2.7 (≈ 5.97 µM) | 
3 | CC(=O)OC1(C)CC(=O)c2c(cc3cc(O)c(CC=C(C)C)c(O)c3c2O)C1 (stereo unspecified) [VISMIONE C] | 2.1 (≈ 5.46 µM) |  |  | 
4 | CC(=O)OC1(C)CC(=O)c2c(cc3cc(OC/C=C(\C)CCC=C(C)C)cc(O)c3c2O)C1 (stereo unspecified) [ACETYLVISMIONE D] | 5 (≈ 11 µM) |  | 1.8 (≈ 3.98 µM) | 
5 | CC(C)=CCC/C(C)=C/Cc1c(O)cc2cc3c(c(O)c2c1O)C(=O)CC(C)(O)C3 (stereo unspecified) [VISMIONE F] | 2.8 (≈ 6.82 µM) | 13.5 (≈ 32.9 µM) | 2 (≈ 4.87 µM) | 
6 | COc1cc2cc3c(c(O)c2c2c1C=CC(C)(C)O2)C(=O)CC(C)(O)C3 (stereo unspecified) [VISMIONE B] | 10 (≈ 28.2 µM) | 3 (≈ 8.46 µM) | 10 (≈ 28.2 µM) | 
7 | COc1cc2cc3c(c(O)c2c(O)c1/C=C/C(C)C)C(=O)CC(C)(O)C3 (stereo unspecified) [DEACETYLVISMIONE A] | 0.7 (≈ 1.96 µM) | 0.3 (≈ 0.842 µM) | 0.4 (≈ 1.12 µM) | 
8 | COc1cc2cc3c(c(O)c2c2c1C=CC(C)(C)O2)C(=O)CC(C)(OC(C)=O)C3 (stereo unspecified) [ACETYLVISMIONE B] | 42 (≈ 106 µM) | 2 (≈ 5.04 µM) | 5 (≈ 12.6 µM) | 
9 | COc1cc2cc3c(c(O)c2c(O)c1/C=C/C(C)C)C(=O)CC(C)(OC(C)=O)C3 (stereo unspecified) [VISMIONE A] | 0.25 (≈ 0.627 µM) | 1.1 (≈ 2.76 µM) | 0.45 (≈ 1.13 µM) | T/C (B16 [4]): 98%; T/C (M5076 [5]): 140%; T/C (M5076 [6]): 145%; T/C (Mus musculus [7]): Toxic; T/C (M5076 [8]): 111%; T/C (Mus musculus [9]): Toxic; T/C (M5076 [10]): 119%; T/C (B16 [11]): 115%; T/C (B16 [12]): 112%; T/C (B16 [13]): 148%; T/C (M5076 [14]): 115%
10 | CC(=O)OC1(C)CC(=O)c2c(c(C/C=C(\C)CCC=C(C)C)c3cc(O)cc(O)c3c2O)C1 (stereo unspecified) [VISMIONE G] | 3.2 (≈ 7.07 µM) | 30 (≈ 66.3 µM) | 30 (≈ 66.3 µM) | 
11 | COc1cccc2c1C(=O)c1c(O)c3c(c(O)c1C2=O)C[C@@](O)(C(=O)CO)C[C@@H]3O[C@H]1C[C@H](N)[C@H](O)[C@H](C)O1 [DOXORUBICIN] | 0.2 (≈ 0.368 µM) | 0.5 (≈ 0.92 µM) | 0.0055 (≈ 0.0101 µM) | 
